According to patent publication US12077503B2, “Substituted cyclic amides and their use as herbicides” (FMC CORPORATION, priority 2015, dated 2024):

Tests used:
Assay type in all cases: in vivo
[1] = test system: pigweed (Amaranthus retroflexus); assay: Test A preemergence; details: Amaranthus retroflexus, pre-emergence, 240 h
[2] = test system: barnyardgrass (Echinochloa crus-galli); assay: Test A preemergence; details: Echinochloa crus-galli, pre-emergence, 240 h
Method in brief: (§1)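 Ratings of 0 (no effect) to 100 (complete control) come from visual comparison with untreated controls roughly 10 d after treatment. Test chemicals, formulated in a non-phytotoxic solvent mixture with surfactant, were applied either as a preemergence directed soil spray on seeded soil or postemergence to one- to two-leaf plants 2 to 10 cm tall.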

[3] = test system: Kochia (Kochia scoparia); assay: Test A preemergence; details: Bassia scoparia, pre-emergence, 240 h
Method in brief: as §1

[4] = test system: ragweed (common ragweed, Ambrosia elatior); assay: Test A preemergence; details: Ambrosia artemisiifolia, pre-emergence, 240 h
Method in brief: as §1

[5] = test system: giant foxtail (Setaria faberii); assay: Test A preemergence; details: Setaria faberi, pre-emergence, 240 h
Method in brief: as §1

[6] = test system: ryegrass, Italian (Italian ryegrass, Lolium multiflorum); assay: Test A preemergence; details: Lolium multiflorum, pre-emergence, 240 h
Method in brief: as §1

[7] = test system: pigweed (Amaranthus retroflexus); assay: Test A postemergence; details: Amaranthus retroflexus, post-emergence, 240 h, 125 g ai/ha, postemergence; visual injury after approximately 10 d; 0 to 100 scale (0 no effect, 100 complete control); read-out: Plant response rating, Pigweed
Method in brief: as §1

[8] = test system: Galium (catchweed bedstraw, Galium aparine); assay: Test A postemergence; details: Galium, post-emergence, 240 h, 125 g ai/ha, postemergence; visual injury after approximately 10 d; 0 to 100 scale (0 no effect, 100 complete control); read-out: Plant response rating, Galium
Method in brief: as §1

[9] = test system: corn (Zea mays); assay: Test A postemergence; details: Zea mays, post-emergence, 240 h, 125 g ai/ha, postemergence; visual injury after approximately 10 d; 0 to 100 scale (0 no effect, 100 complete control)
Method in brief: as §1

[10] = test system: blackgrass (Alopecurus myosuroides); assay: Test A postemergence; details: Alopecurus myosuroides, post-emergence, 240 h, 125 g ai/ha, postemergence; visual injury after approximately 10 d; 0 to 100 scale (0 no effect, 100 complete control); read-out: Plant response rating, Blackgrass
Method in brief: as §1

[11] = test system: barnyardgrass (Echinochloa crus-galli); assay: Test A postemergence; details: Echinochloa crus-galli, post-emergence, 240 h, 125 g ai/ha, postemergence; visual injury after approximately 10 d; 0 to 100 scale (0 no effect, 100 complete control); read-out: Plant response rating, Barnyardgrass
Method in brief: as §1

[12] = test system: Kochia (Kochia scoparia); assay: Test A postemergence; details: Bassia scoparia, post-emergence, 240 h, 125 g ai/ha, postemergence; visual injury after approximately 10 d; 0 to 100 scale (0 no effect, 100 complete control); read-out: Plant response rating, Kochia
Method in brief: as §1

[13] = test system: ragweed (common ragweed, Ambrosia elatior); assay: Test A postemergence; details: Ambrosia artemisiifolia, post-emergence, 240 h, 125 g ai/ha, postemergence; visual injury after approximately 10 d; 0 to 100 scale (0 no effect, 100 complete control); read-out: Plant response rating, Ragweed
Method in brief: as §1

[14] = test system: giant foxtail (Setaria faberii); assay: Test A postemergence; details: Setaria faberi, post-emergence, 240 h, 125 g ai/ha, postemergence; visual injury after approximately 10 d; 0 to 100 scale (0 no effect, 100 complete control); read-out: Plant response rating, Foxtail, Giant
Method in brief: as §1

[15] = test system: ryegrass, Italian (Italian ryegrass, Lolium multiflorum); assay: Test A postemergence; details: Lolium multiflorum, post-emergence, 240 h, 125 g ai/ha, postemergence; visual injury after approximately 10 d; 0 to 100 scale (0 no effect, 100 complete control); read-out: Plant response rating, Ryegrass, Italian
Method in brief: as §1

Cc1cc([C@H]2CNC(=O)[C@@H]2C(=O)Nc2ccc(F)cc2F)ccc1Cl [Compound 791]
60%: pest or weed control at 500 g/ha ([3]; 500 g ai/ha, Preemergence, visual injury vs untreated controls after approximately 10 d, read-out: Kochia plant response rating (0 to 100 scale where 0 is no effect and 100 is complete control)) | pest or weed control at 125 g/ha [8] | pest or weed control at 125 g/ha [11]
0%: pest or weed control at 125 g/ha ([1]; 125 g ai/ha, preemergence, visual rating after approx. 10 d, 0 to 100 scale where 0 is no effect and 100 is complete control, read-out: Plant response rating, Pigweed) | pest or weed control at 500 g/ha ([1]; 500 g ai/ha, Preemergence, visual injury vs untreated controls after approximately 10 d, read-out: Pigweed plant response rating (0 to 100 scale where 0 is no effect and 100 is complete control)) | pest or weed control at 125 g/ha ([4]; 125 g ai/ha, preemergence, visual rating after approx. 10 d, 0 to 100 scale where 0 is no effect and 100 is complete control, read-out: Plant response rating, Ragweed) | pest or weed control at 125 g/ha ([6]; 125 g ai/ha, preemergence, visual rating after approx. 10 d, 0 to 100 scale where 0 is no effect and 100 is complete control, read-out: Plant response rating, Ryegrass, Italian) | pest or weed control at 125 g/ha [7] | Corn plant response rating (crop injury, 0 = no effect, 100 = complete kill) at 125 g/ha [9] | pest or weed control at 125 g/ha [10] | pest or weed control at 125 g/ha [13] | pest or weed control at 125 g/ha [15]
20%: pest or weed control at 500 g/ha ([6]; 500 g ai/ha, Preemergence, visual injury vs untreated controls after approximately 10 d, read-out: Ryegrass, Italian plant response rating (0 to 100 scale where 0 is no effect and 100 is complete control)) | pest or weed control at 125 g/ha [12]
30%: pest or weed control at 125 g/ha [14]
50%: pest or weed control at 125 g/ha ([3]; 125 g ai/ha, preemergence, visual rating after approx. 10 d, 0 to 100 scale where 0 is no effect and 100 is complete control, read-out: Plant response rating, Kochia) | pest or weed control at 125 g/ha ([5]; 125 g ai/ha, preemergence, visual rating after approx. 10 d, 0 to 100 scale where 0 is no effect and 100 is complete control, read-out: Plant response rating, Foxtail, Giant)
40%: pest or weed control at 500 g/ha ([4]; 500 g ai/ha, Preemergence, visual injury vs untreated controls after approximately 10 d, read-out: Ragweed plant response rating (0 to 100 scale where 0 is no effect and 100 is complete control))
90%: pest or weed control at 125 g/ha ([2]; 125 g ai/ha, preemergence, visual rating after approx. 10 d, 0 to 100 scale where 0 is no effect and 100 is complete control, read-out: Plant response rating, Barnyardgrass) | pest or weed control at 500 g/ha ([2]; 500 g ai/ha, Preemergence, visual injury vs untreated controls after approximately 10 d, read-out: Barnyardgrass plant response rating (0 to 100 scale where 0 is no effect and 100 is complete control)) | pest or weed control at 500 g/ha ([5]; 500 g ai/ha, Preemergence, visual injury vs untreated controls after approximately 10 d, read-out: Foxtail, Giant plant response rating (0 to 100 scale where 0 is no effect and 100 is complete control))
